In US10800791B2, “Triazole ACC inhibitors and uses thereof” (Gilead Apollo, LLC, priority 2015, dated 2020):
Values after ≈ are worked out from the molar mass of the structure shown. Read-outs that look alike come from different tables or passages of the source.

Columns and labels:
[1] = system: Fusarium moniliforme (Fm); test: Growth inhibition assay of fungal pathogens, Fm; format: cell-based; conditions: for IC90: Fusarium verticillioides, 48 h, read-out: Concentration at 90% Inhibition Fm
How it was run: (§1)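 Percent inhibition derived at 48 hours from OD600 and visual scores versus 2% DMSO control, with media+DMSO blank as background. Spore inocula in 17% V8 medium were sized from 48 h growth curves; compounds tested at final 50/10/2 or 2/0.4/0.08 ppm.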

human (hACC2) = human (hACC2) (Homo sapiens, UniProt O00763); test: In vitro ACC inhibition assay (ADP-Glo), hACC2; format: biochemical; conditions: 5 nM ACC2, 20 μM ATP, 20 μM acetyl-CoA
Procedure: The detailed procedure is as follows. […] 10 μL ADP glo reagent was added. […] 20 μL kinase detection reagent was added.

Septoria tritici (St) = test: Growth inhibition assay of fungal pathogens, St; format: cell-based; conditions: Zymoseptoria tritici, 48 h
How it was run: as §1

Diplodia maydis (Dm) = test: Growth inhibition assay of fungal pathogens, Dm; format: cell-based; conditions: Stenocarpella maydis, 48 h
How it was run: as §1

[2] = system: Fusarium virguliforme (Fv); test: Growth inhibition assay of fungal pathogens, Fv; format: cell-based; conditions: 48 h
How it was run: as §1

[3] = system: Phytophthora capsici (Pc); test: Growth inhibition assay of fungal pathogens, Pc; format: cell-based; conditions: 48 h
How it was run: as §1

fungal (fACC2) = fungal (fACC2) (UniProt Q00955); conditions: read-out: fACC2 (in vitro ACC2 Inhibition Assay, IC50), ADP-Glo, 5 nM ACC2, 20 μM ATP, 20 μM acetyl-CoA
Rhizoctonia solani (Rs) = test: Growth inhibition assay of fungal pathogens, Rs; format: cell-based; conditions: 48 h
C. parapsilosis = test: Antifungal Activity Assay (broth microtiter MIC), C. parapsilosis; format: cell-based, Candida parapsilosis; conditions: Lodderomyces parapsilosis, ATCC22019, 48 h
How it was run: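 Endpoint: lowest concentration visibly inhibiting growth relative to control after 48 h. Inoculum of 2.5×10^3 CFU/mL final in RPMI 1640+MOPS, prepared from overnight 35° C agar cultures; test compounds diluted in water to 128 μg/mL before plating.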

[4] = system: Collectotrichum graminicola (Cg); test: Growth inhibition assay of fungal pathogens, Cg; format: cell-based; conditions: 48 h
How it was run: as §1

[5] = Fusarium moniliforme, growth inhibition at 48 hours vs 2% DMSO control
[6] = read-out: Concentration at 90% Inhibition St, Septoria tritici, growth inhibition at 48 hours vs 2% DMSO control
[7] = read-out: Concentration at 90% Inhibition St, Septoria tritici, growth inhibition vs 2% DMSO control at 48 hours
[8] = read-out: Concentration at 90% Inhibition Dm, Diplodia maydis, growth inhibition at 48 hours vs 2% DMSO control
[9] = read-out: Concentration at 90% Inhibition Dm, Diplodia maydis, growth inhibition vs 2% DMSO control at 48 hours
[10] = read-out: Concentration at 90% Inhibition Fv, Fusarium virguliforme, growth inhibition at 48 hours vs 2% DMSO control
[11] = read-out: Concentration at 90% Inhibition Fv, Fusarium virguliforme, growth inhibition vs 2% DMSO control at 48 hours
[12] = read-out: Concentration at 90% Inhibition Pc, Phytophthora capsici, growth inhibition at 48 hours vs 2% DMSO control
[13] = read-out: Concentration at 90% Inhibition Pc, Phytophthora capsici, growth inhibition vs 2% DMSO control at 48 hours
[14] = read-out: Concentration at 90% Inhibition Rs, Rhizoctonia solani, mycelial plugs, growth inhibition at 48 hours vs 2% DMSO control
[15] = read-out: Concentration at 90% Inhibition Rs, Rhizoctonia solani, mycelial plugs, growth inhibition vs 2% DMSO control at 48 hours
[16] = read-out: MIC, C. parapsilosis ATCC 22019, Table 3a, 3 replicates, MIC recorded at 48 h
[17] = read-out: MIC, C. parapsilosis ATCC 22019, Table 3b (additional results), 3 replicates, MIC recorded at 48 h
[18] = read-out: Concentration at 90% Inhibition Cg, Collectotrichum graminicola, growth inhibition at 48 hours vs 2% DMSO control
[19] = read-out: Concentration at 90% Inhibition Cg, Collectotrichum graminicola, growth inhibition vs 2% DMSO control at 48 hours

Sequence of fungal (fACC2) (Q00955 whole entry): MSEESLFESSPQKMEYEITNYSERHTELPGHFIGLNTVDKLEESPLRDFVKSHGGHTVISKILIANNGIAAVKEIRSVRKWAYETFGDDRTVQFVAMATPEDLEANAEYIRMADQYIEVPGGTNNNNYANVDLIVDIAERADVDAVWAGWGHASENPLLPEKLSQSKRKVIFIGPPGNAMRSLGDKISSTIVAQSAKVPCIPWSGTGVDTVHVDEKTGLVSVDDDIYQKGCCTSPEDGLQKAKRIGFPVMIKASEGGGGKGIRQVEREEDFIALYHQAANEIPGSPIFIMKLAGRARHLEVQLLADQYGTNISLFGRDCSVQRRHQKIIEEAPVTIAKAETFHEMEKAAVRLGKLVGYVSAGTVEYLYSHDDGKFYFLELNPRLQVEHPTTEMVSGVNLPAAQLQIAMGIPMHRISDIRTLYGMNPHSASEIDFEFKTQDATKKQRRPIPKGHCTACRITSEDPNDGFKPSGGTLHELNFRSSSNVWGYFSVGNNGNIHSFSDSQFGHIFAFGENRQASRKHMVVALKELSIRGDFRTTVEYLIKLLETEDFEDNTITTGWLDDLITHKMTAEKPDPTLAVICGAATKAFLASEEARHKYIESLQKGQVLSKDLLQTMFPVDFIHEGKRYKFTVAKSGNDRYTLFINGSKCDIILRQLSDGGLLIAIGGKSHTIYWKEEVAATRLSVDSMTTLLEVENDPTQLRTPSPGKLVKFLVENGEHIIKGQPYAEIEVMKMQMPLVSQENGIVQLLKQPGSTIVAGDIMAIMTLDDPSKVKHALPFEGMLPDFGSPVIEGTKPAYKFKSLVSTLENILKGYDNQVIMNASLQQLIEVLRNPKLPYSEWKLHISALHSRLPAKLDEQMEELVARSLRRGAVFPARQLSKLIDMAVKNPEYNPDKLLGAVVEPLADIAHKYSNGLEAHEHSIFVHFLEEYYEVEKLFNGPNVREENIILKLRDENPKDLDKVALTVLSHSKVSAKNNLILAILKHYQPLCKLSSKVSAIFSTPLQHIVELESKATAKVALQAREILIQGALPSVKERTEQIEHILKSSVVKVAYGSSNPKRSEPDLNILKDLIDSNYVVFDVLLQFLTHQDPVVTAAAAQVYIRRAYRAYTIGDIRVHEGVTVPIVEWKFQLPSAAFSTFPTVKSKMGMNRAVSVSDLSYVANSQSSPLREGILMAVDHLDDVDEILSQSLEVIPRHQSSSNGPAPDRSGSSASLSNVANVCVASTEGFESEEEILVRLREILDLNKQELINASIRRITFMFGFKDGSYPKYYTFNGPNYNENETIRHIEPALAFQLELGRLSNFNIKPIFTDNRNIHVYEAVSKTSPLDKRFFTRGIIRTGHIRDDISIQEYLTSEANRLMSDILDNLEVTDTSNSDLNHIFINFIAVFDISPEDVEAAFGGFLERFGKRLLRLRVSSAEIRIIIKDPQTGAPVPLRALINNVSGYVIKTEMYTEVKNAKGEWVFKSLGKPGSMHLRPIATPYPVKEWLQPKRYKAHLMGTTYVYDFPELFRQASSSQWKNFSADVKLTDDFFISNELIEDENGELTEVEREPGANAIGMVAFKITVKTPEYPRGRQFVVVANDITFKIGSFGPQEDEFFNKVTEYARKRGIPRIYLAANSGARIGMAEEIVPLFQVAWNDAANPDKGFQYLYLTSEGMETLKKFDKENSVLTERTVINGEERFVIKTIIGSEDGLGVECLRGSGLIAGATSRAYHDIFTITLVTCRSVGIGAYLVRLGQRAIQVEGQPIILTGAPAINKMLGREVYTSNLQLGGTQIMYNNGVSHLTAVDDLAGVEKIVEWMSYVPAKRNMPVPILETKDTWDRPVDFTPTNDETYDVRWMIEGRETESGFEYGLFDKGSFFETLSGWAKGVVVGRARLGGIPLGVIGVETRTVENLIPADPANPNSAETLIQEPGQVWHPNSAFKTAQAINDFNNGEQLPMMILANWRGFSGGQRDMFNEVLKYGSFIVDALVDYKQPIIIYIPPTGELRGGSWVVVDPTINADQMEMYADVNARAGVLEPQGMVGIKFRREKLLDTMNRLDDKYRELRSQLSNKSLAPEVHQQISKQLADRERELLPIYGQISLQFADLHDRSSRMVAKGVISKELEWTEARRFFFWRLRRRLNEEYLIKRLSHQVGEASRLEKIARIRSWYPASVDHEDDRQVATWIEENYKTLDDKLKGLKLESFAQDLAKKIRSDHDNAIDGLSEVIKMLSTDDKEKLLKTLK
Sequence of human (hACC2) (O00763 whole entry): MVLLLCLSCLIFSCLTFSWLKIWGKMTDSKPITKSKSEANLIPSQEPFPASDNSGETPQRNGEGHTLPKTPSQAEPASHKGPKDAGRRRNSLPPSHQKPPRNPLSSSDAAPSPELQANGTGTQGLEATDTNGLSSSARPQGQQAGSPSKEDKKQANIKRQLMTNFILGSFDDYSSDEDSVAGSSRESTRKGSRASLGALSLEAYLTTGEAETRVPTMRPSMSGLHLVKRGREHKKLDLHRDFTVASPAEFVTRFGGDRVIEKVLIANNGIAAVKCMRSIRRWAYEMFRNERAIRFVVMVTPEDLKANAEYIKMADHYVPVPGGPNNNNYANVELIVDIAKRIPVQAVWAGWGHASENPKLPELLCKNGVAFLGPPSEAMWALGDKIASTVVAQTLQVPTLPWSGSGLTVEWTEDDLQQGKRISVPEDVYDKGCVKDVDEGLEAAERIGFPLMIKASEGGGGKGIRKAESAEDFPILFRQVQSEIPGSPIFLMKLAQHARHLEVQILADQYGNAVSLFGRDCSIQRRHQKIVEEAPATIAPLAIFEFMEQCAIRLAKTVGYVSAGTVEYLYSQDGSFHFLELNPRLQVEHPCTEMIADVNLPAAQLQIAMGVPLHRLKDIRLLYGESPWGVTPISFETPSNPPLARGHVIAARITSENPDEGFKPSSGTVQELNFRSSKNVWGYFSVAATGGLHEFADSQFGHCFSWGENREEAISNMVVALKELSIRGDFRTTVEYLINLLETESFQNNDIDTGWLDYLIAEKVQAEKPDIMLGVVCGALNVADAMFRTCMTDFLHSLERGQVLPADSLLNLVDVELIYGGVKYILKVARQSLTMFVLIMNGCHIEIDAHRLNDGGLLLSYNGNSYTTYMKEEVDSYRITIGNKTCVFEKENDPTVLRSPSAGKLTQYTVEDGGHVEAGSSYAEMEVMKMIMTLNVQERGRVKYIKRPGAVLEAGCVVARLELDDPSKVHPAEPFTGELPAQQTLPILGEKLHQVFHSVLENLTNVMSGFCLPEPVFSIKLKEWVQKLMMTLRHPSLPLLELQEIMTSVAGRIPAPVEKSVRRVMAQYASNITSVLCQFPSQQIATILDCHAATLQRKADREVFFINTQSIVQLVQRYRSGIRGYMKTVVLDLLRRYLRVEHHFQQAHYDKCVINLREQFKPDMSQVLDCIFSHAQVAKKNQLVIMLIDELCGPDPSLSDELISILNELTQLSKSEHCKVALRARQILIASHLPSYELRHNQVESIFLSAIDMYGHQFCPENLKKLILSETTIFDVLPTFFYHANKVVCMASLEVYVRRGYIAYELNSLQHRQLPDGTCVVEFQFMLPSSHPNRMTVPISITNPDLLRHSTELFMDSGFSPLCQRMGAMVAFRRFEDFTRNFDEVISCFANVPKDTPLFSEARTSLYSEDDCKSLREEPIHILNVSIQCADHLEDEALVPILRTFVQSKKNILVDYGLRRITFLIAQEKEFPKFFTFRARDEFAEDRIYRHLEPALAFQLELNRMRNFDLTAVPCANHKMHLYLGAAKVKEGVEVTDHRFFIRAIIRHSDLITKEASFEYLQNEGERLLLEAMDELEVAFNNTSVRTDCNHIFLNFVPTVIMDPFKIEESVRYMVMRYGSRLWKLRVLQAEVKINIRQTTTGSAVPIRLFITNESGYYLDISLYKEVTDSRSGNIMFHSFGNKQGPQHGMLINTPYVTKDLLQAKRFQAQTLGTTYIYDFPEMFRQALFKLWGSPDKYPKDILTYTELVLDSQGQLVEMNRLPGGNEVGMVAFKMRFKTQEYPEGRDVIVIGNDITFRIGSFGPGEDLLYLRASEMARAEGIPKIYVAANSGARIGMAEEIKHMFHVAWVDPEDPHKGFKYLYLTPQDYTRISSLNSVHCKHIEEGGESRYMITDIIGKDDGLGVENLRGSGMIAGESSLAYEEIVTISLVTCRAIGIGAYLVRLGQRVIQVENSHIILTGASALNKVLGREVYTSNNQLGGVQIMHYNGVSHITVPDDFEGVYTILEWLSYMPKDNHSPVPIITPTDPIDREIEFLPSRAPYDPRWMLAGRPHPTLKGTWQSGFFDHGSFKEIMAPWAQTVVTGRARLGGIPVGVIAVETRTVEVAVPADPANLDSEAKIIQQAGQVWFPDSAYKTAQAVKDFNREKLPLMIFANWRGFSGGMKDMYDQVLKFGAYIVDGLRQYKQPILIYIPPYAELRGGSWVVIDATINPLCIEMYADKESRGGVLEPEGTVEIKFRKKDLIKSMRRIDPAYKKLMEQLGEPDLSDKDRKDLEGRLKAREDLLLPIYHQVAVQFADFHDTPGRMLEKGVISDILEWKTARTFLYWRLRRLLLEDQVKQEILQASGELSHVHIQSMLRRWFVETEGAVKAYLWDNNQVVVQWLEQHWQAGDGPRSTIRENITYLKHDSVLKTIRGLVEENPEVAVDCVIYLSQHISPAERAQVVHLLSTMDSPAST

| Structure (SMILES) | Concentration at 90% Inhibition Fm [1, 5] | IC90 [1] [µg/mL] | IC50 (human (hACC2); Table 2a) [nM] | IC50 (human (hACC2); Table 2b, additional results) [nM] | IC90 (Septoria tritici (St); [6]) [µg/mL] | IC90 (Septoria tritici (St); [7]) [µg/mL] | IC90 (Diplodia maydis (Dm); [8]) [µg/mL] | IC90 (Diplodia maydis (Dm); [9]) [µg/mL] | IC90 [2, 10] [µg/mL] | IC90 [2, 11] [µg/mL] | IC90 [3, 12] [µg/mL] | IC90 [3, 13] [µg/mL] | IC50 (fungal (fACC2); Table 2a) [nM] | IC50 (fungal (fACC2); Table 2b, additional results) [nM] | IC90 (Rhizoctonia solani (Rs); [14]) [µg/mL] | IC90 (Rhizoctonia solani (Rs); [15]) [µg/mL] | MIC (C. parapsilosis; [16]) [µg/mL] | MIC (C. parapsilosis; [17]) [µg/mL] | IC90 [4, 18] [µg/mL] | IC90 [4, 19] [µg/mL] | other results |
| --- | --- | --- | --- | --- | --- | --- | --- | --- | --- | --- | --- | --- | --- | --- | --- | --- | --- | --- | --- | --- | --- |
| COc1ccc(F)cc1[C@H](Cn1c(=O)n(C(C)(C)C(=O)NC2CCCCC2)c(=O)c2c(C)c(-n3nccn3)sc21)OC1CCOCC1 [Compound I-28, (R)—N-cyclohexyl-2-(1-(2-(5-fluoro-2-methoxyphenyl)-2-((tetrahydro-2H-pyran-4-yl)oxy)ethyl)-5-methyl-2,4-dioxo-6-(2H-1,2,3-triazol-2-yl)-1,4-dihydrothieno[2,3-d]pyrimidin-3(2H)-yl)-2-methylpropanamide] | AA (compound concentration of 0.08 ppm at 90% inhibition of fungal pathogens) | 0.08 (≈ 0.12 µM) | 10 to 40 | 10 to 40 | 2 (≈ 2.99 µM) | 10 (≈ 15 µM) | 0.4 (≈ 0.598 µM) | 0.4 (≈ 0.598 µM) | 0.4 (≈ 0.598 µM) | 0.4 (≈ 0.598 µM) | > 50 | > 50 | 1 to 5 | 1 to 5 | 0.4 (≈ 0.598 µM) | 0.4 (≈ 0.598 µM) | 0.25 to 1 (≈ 0.374 to 1.5 µM) | 0.25 to 1 (≈ 0.374 to 1.5 µM) | 2 (≈ 2.99 µM) | 2 (≈ 2.99 µM) | – |
| COc1ccc(F)cc1[C@H](Cn1c(=O)n(C(C)(C)C(=O)NCC(C)C)c(=O)c2c(C)c(-n3nccn3)sc21)OC1CCOCC1 [Compound I-29, (R)-2-(1-(2-(5-fluoro-2-methoxyphenyl)-2-((tetrahydro-2H-pyran-4-yl)oxy)ethyl)-5-methyl-2,4-dioxo-6-(2H-1,2,3-triazol-2-yl)-1,4-dihydro-thieno[2,3-d]pyrimidin-3(2H)-yl)-N-isobutyl-2-methylpropanamide] | – | – | 5 to 10 | 5 to 10 | – | – | – | – | – | – | – | – | 1 to 5 | 1 to 5 | – | – | – | – | – | – | IC90 [1, 5]: 0.08 µg/mL (≈ 0.124 µM); IC90 ([1]; Fusarium moniliforme, growth inhibition vs 2% DMSO control at 48 hours): 0.08 µg/mL (≈ 0.124 µM); IC90 (Septoria tritici (St); Septoria tritici, growth inhibition at 48 hours vs 2% DMSO control, read-out: Concentration at 90% Inhibition St): 10 µg/mL (≈ 15.6 µM); IC90 (Septoria tritici (St); Septoria tritici, growth inhibition vs 2% DMSO control at 48 hours, read-out: Concentration at 90% Inhibition St): > 50 µg/mL; IC90 (Diplodia maydis (Dm); Diplodia maydis, growth inhibition at 48 hours vs 2% DMSO control, read-out: Concentration at 90% Inhibition Dm): 0.4 µg/mL (≈ 0.622 µM); IC90 (Diplodia maydis (Dm); Diplodia maydis, growth inhibition vs 2% DMSO control at 48 hours, read-out: Concentration at 90% Inhibition Dm): 0.4 µg/mL (≈ 0.622 µM); IC90 ([2]; growth inhibition at 48 hours vs 2% DMSO control, read-out: Concentration at 90% Inhibition Fv): 0.4 µg/mL (≈ 0.622 µM); IC90 ([2]; growth inhibition vs 2% DMSO control at 48 hours, read-out: Concentration at 90% Inhibition Fv): 0.4 µg/mL (≈ 0.622 µM); IC90 ([3]; growth inhibition at 48 hours vs 2% DMSO control, read-out: Concentration at 90% Inhibition Pc): > 50 µg/mL; IC90 ([3]; growth inhibition vs 2% DMSO control at 48 hours, read-out: Concentration at 90% Inhibition Pc): > 50 µg/mL; IC90 (Rhizoctonia solani (Rs); mycelial plugs, growth inhibition at 48 hours vs 2% DMSO control, read-out: Concentration at 90% Inhibition Rs): 2 µg/mL (≈ 3.11 µM); IC90 (Rhizoctonia solani (Rs); mycelial plugs, growth inhibition vs 2% DMSO control at 48 hours, read-out: Concentration at 90% Inhibition Rs): 2 µg/mL (≈ 3.11 µM); MIC (C. parapsilosis; Table 3a, ATCC 22019, 3 replicates, MIC recorded at 48 h, read-out: MIC, C. parapsilosis ATCC 22019): 0.25 to 1 µg/mL (≈ 0.389 to 1.56 µM); MIC (C. parapsilosis; Table 3b (additional results), ATCC 22019, 3 replicates, MIC recorded at 48 h, read-out: MIC, C. parapsilosis ATCC 22019): 0.25 to 1 µg/mL (≈ 0.389 to 1.56 µM); IC90 ([4]; Collectotrichum graminicola, growth inhibition at 48 hours vs 2% DMSO control, read-out: Concentration at 90% Inhibition Cg): 0.4 µg/mL (≈ 0.622 µM); IC90 ([4]; Collectotrichum graminicola, growth inhibition vs 2% DMSO control at 48 hours, read-out: Concentration at 90% Inhibition Cg): 0.4 µg/mL (≈ 0.622 µM) |
| COc1ccc(F)cc1[C@H](Cn1c(=O)n(C(C)(C)C(=O)N2CCCCC2)c(=O)c2c(C)c(-n3nccn3)sc21)OC1CCC(=O)CC1 [Compound I-34, (R)-1-(2-(5-fluoro-2-methoxyphenyl)-2-((4-oxocyclohexyl)oxy)ethyl)-5-methyl-3-(2-methyl-1-oxo-1-(piperidin-1-yl)propan-2-yl)-6-(2H-1,2,3-triazol-2-yl)thieno[2,3-d]pyrimidine-2,4(1H,3H)-dione] | AA (compound concentration of 0.08 ppm at 90% inhibition of fungal pathogens) | 0.08 (≈ 0.12 µM) | 5 to 10 | 5 to 10 | > 50 | > 50 | 2 (≈ 3 µM) | 2 (≈ 3 µM) | 0.4 (≈ 0.6 µM) | 0.4 (≈ 0.6 µM) | > 50 | > 50 | 1 to 5 | 1 to 5 | 2 (≈ 3 µM) | 2 (≈ 3 µM) | 0.25 to 1 (≈ 0.375 to 1.5 µM) | 0.25 to 1 (≈ 0.375 to 1.5 µM) | 0.4 (≈ 0.6 µM) | 0.4 (≈ 0.6 µM) | – |
